# Measured values from patent publication US8828988B2 (Tetraphase Pharmaceuticals, Inc., priority 2009, dated 2014).
# Where two headings read alike, the source gives them in different places.
# Experiments:
# [1] = test system: Staphylococcus aureus SA101, ATCC 29213, MSSA; test: MIC assay, SA101; type: cell-based
# [2] = test system: Staphylococcus aureus SA100, ATCC 13709, MSSA, Smith strain; test: MIC assay, SA100; type: cell-based
# [3] = test system: Staphylococcus aureus SA161, HA-MRSA, tetracycline-resistant, tet(M); test: MIC assay, SA161; type: cell-based
# [4] = test system: Staphylococcus aureus SA158, tetracycline-resistant tet(K); test: MIC assay, SA158; type: cell-based
# [5] = test system: Enterococcus faecalis EF103, ATCC 29212; test: MIC assay, EF103; type: cell-based; conditions: for MIC: Enterococcus faecalis
# [6] = test system: Enterococcus faecalis EF159, tetracycline-resistant, tet(M); test: MIC assay, EF159; type: cell-based
# [7] = test system: Streptococcus pneumoniae SP106, ATCC 49619; test: MIC assay, SP106; type: cell-based
# [8] = test system: Streptococcus pneumoniae SP160, tetracycline-resistant, tet(M); test: MIC assay, SP160; type: cell-based
# [9] = test system: Escherichia coli EC107, ATCC 25922; test: MIC assay, EC107; type: cell-based
# [10] = test system: Escherichia coli EC155, tetracycline-resistant, tet(A); test: MIC assay, EC155; type: cell-based
# [11] = test system: Acinetobacter baumannii AB110, ATCC 19606; test: MIC assay, AB110; type: cell-based
# [12] = test system: Pseudomonas aeruginosa PA111, ATCC 27853; test: MIC assay, PA111; type: cell-based
# [13] = test system: Enterobacter cloacae EC108, ATCC 13047; test: MIC assay, EC108; type: cell-based
# [14] = test system: Klebsiella pneumoniae KP109, ATCC 13883; test: MIC assay, KP109; type: cell-based
# [15] = test system: Klebsiella pneumoniae KP153, tetracycline-resistant, tet(A), MDR, ESBL+; test: MIC assay, KP153; type: cell-based
# [16] = test system: E. faecalis clinical isolates; test: MIC50, MIC90 and MIC range, panel of clinical isolates (Example 20); type: cell-based; conditions: 24 isolates, in µg/mL
# Experimental: (§1) The assays were run as follows.
# (§2) Both values, as well as the MIC range (the lowest and highest MIC value observed for a collection of organisms), were determined for the isolates listed in Table 3.
# [17] = test system: S. aureus clinical isolates; test: as above; type: cell-based; conditions: MRSA, 30 isolates; in µg/mL
# Experimental: as §1, §2
# [18] = test system: S. pneumoniae clinical isolates; test: as above; type: cell-based; conditions: 19 isolates
# Experimental: as §1, §2
# [19] = test system: E. coli DH10B(pBAD-tetK), expressing tet(K); test: MIC against recombinant E. coli expressing tet(K); type: cell-based; conditions: for MIC: Escherichia coli
# Source text: (§3) Constructs were transformed into E. coli DH10B for expression. Recombinant strains were pre-induced under optimized conditions with L-arabinose prior to use as inocula in CLSI standardized MIC assays.
# [20] = test system: E. coli DH10B(pBAD-tetM), expressing tet(M); test: MIC against recombinant E. coli expressing tet(M); type: cell-based
# Source text: as §3
# [21] = test system: S. pneumoniae isolates (Eurofins-Medinet, recent clinical isolates); test: MIC50 and MIC90 analysis (Example 22)
# Experimental: (§4) Frozen bacterial strains were thawed and subcultured onto Mueller Hinton Broth (MHB) or other appropriate media (Streptococcus requires blood and Haemophilus requires hemin and NAD). Following incubation overnight, the strains were subcultured onto Mueller Hinton Agar and again incubated overnight. […] Isolated colonies were selected to prepare a starting inoculum equivalent to a 0.5 McFarland standard. […] Antibiotics (stored frozen, thawed and used within 3 hours of thawing) and compounds were further diluted to the desired working concentrations.
# (§5) The assays were run as follows. Fifty μL of MHB was added to wells 2-12 of a 96-well plate. One hundred μL of appropriately diluted antibiotic or compound was added to well 1. Fifty μL of antibiotics or compound was removed from well 1 and added to well 2 and the contents of well 2 mixed by pipetting up and down five times. Fifty μL of the mixture in well 2 was removed and added to well 3 and mixed as above. Serial dilutions were continued in the same manner through well 12. Fifty μL was removed from well 12 so that all contained 50 μL. Fifty μL of the working inoculum was then added to all test wells. A growth control well was prepared by adding 50 μL of working inoculum and 50 μL of MHB to an empty well. The plates were then incubated at 37° C. overnight, removed from the incubator and each well was read on a plate reading mirror. The lowest concentration (MIC) of test compound that inhibited the growth of the bacteria was recorded.
# (§6) MIC, MIC50 and MIC90 values were determined according to CLSI methodology. S. pneumoniae and H. influenzae isolates were obtained from Eurofins-Medinet and are recent clinical isolates. S. aureus strains were collected from various geographical sources.
# [22] = test system: H. influenzae isolates (Eurofins-Medinet, recent clinical isolates); test: MIC50 and MIC90 analysis (Example 22)
# Experimental: as §4, §5, §6
# [23] = test system: E. coli S30 extract system, coupled in vitro transcription/translation, firefly luciferase readout; test: In vitro transcription/translation (TnT) assay; type: biochemical
# E. coli ATCC 25922 = test: Mouse systemic infection model, E. coli septicemia; conditions: mouse septicemia, E. coli ATCC 25922, treatment one hour post-challenge, survival after 48 hours
# [24] = test system: S. aureus ATCC 13709 (Smith); test: Mouse systemic infection model, S. aureus septicemia; conditions: mouse septicemia, S. aureus ATCC 13709, intravenous treatment one hour post-challenge, survival after 48 hours
# [25] = ATCC29212, read-out: MIC EF103 29212
# [26] = ATCC49619, read-out: MIC SP106 49619
# [27] = ATCC25922, read-out: MIC EC107 25922
# [28] = ATCC19606, read-out: MIC AB110 19606
# [29] = ATCC27853, read-out: MIC PA111 27853
# [30] = ATCC13047, read-out: MIC EC108 13047
# [31] = ATCC13883, read-out: MIC KP109 13883
smiles,measurement,setting,value
"C[C@H]1c2cccc(O)c2C(=O)C2=C(O)[C@]3(O)C(=O)C(C(N)=O)=C(O)[C@@H](N(C)C)[C@@H]3[C@@H](O)[C@@H]21 [Doxycycline, doxycycline, reference compound]",MIC,"[1]; Table 8, read-out: MIC S. aureus ATCC 29213",0.13 µg/mL
same,MIC,"[1]; Table 9, read-out: MIC S. aureus ATCC 29213",0.5 µg/mL
same,MIC,"[2]; Table 9, read-out: MIC S. aureus ATCC 13709",0.13 µg/mL
same,MIC,"[3]; Table 8, read-out: MIC S. aureus MRSA, tetM",8 µg/mL
same,MIC,"[3]; Table 9, read-out: MIC MRSA (tet)M SA161",8 µg/mL
same,MIC,"[4]; Table 8, read-out: MIC S. aureus tetK",2 µg/mL
same,MIC,"[4]; Table 9, read-out: MIC S. aureus SA158 (tet)K",2 µg/mL
same,MIC,"[5]; ATCC29212, Table 8, read-out: MIC E. faecalis ATCC 29212",4 µg/mL
same,MIC E. faecalis ATCC 29212,[5]; Table 9,4 µg/mL
same,MIC,"[6]; Table 8, read-out: MIC E. faecalis tetM",4 µg/mL
same,MIC,"[6]; Table 9, read-out: MIC E. faecalis EF159 (tet)M",8 µg/mL
same,MIC,"[7]; ATCC49619, Table 8, read-out: MIC S. pneumoniae ATCC 49619",0.06 µg/mL
same,MIC,"[7]; ATCC49619, Table 9, read-out: MIC S. pneum ATCC 49619",0.25 µg/mL
same,MIC,"[8]; Table 8, read-out: MIC S. pneumoniae tetM",4 µg/mL
same,MIC,"[8]; Table 9, read-out: MIC S. pneum SP160 (tet)M",8 µg/mL
same,MIC,"[9]; ATCC25922, Table 8, read-out: MIC E. coli ATCC 25922",1 µg/mL
same,MIC,"[9]; ATCC25922, Table 9, read-out: MIC E. coli ATCC 25922",1 µg/mL
same,MIC,"[10]; Table 8, read-out: MIC E. coli tetA",32 µg/mL
same,MIC,"[10]; Table 9, read-out: MIC E. coli EC155 (tet)A",32 µg/mL
same,MIC,"[11]; ATCC19606, Table 9, read-out: MIC A.baum AB110",2 µg/mL
same,MIC,"[12]; ATCC27853, Table 9, read-out: MIC P. aeruginosa ATCC 27853",> 32 µg/mL
same,MIC,"[13]; ATCC13047, Table 9, read-out: MIC Enterobacter cloaceae ATCC 13047",4 µg/mL
same,MIC,"[14]; ATCC13883, Table 9, read-out: MIC Klebsiella pneum ATCC 13883",2 µg/mL
same,MIC,"[15]; Table 9, read-out: MIC Klebsiella pneum KP153 (tet)A",32 µg/mL
same,MIC Range,[16],0.063-16
same,MIC Range,[17],0.063-8
same,MIC Range,[18]; in µg/mL,<=0.016-16
same,MIC,"[19]; read-out: MIC, TetK Induced",8 µg/mL
same,MIC,"[19]; read-out: MIC, Uninduced",2 µg/mL
same,"MIC ratio, TetK induced to uninduced",[19]; ratio of TetK induced to uninduced MIC,4
same,"MIC in the presence of tet(K) expression, fold higher than when tet(K) was not expressed",[19]; tet(K) expressed vs not expressed,4 fold
same,MIC,"[20]; Escherichia coli, read-out: MIC, Uninduced",4 µg/mL
same,Ratio (TetM induced / Uninduced),[20]; ratio of MICs,8
same,MIC Range,[21]; S. pneumoniae (n = 20),≦0.016-16 μg/ml
same,MIC50,[21]; Streptococcus pneumoniae,8 µg/mL
same,MIC90,[21]; Streptococcus pneumoniae,8 µg/mL
same,MIC Range,[22]; H. influenzae (n = 12),0.5 to 4 µg/mL
same,MIC50,[22]; Haemophilus influenzae,1 µg/mL
same,MIC90,[22]; Haemophilus influenzae,4 µg/mL
"CN(C)c1ccc(O)c2c1C[C@H]1C[C@H]3[C@H](N(C)C)C(O)=C(C(N)=O)C(=O)[C@@]3(O)C(O)=C1C2=O [Mino., Minocycline, reference compound]",MIC,"[1]; numeric values of control compounds, read-out: MIC SA101 29213",0.06 µg/mL
same,MIC,"[2]; numeric values of control compounds, read-out: MIC SA100 13709",0.06 µg/mL
same,MIC,"[3]; numeric values of control compounds, read-out: MIC SA161 MRSA, tetM",8 µg/mL
same,MIC,"[4]; numeric values of control compounds, read-out: MIC SA158 tetK",0.03 µg/mL
same,MIC,"[6]; numeric values of control compounds, read-out: MIC EF159 tetM",16 µg/mL
same,MIC,"[7]; ATCC49619, numeric values of control compounds, read-out: MIC SP106 49619",< 0.015 µg/mL
same,MIC,"[8]; numeric values of control compounds, read-out: MIC SP160 tetM",2 µg/mL
same,MIC,"[9]; ATCC25922, numeric values of control compounds, read-out: MIC EC107 25922",0.5 µg/mL
same,MIC,"[10]; numeric values of control compounds, read-out: MIC EC155 tetA",8 µg/mL
same,MIC,"[11]; ATCC19606, numeric values of control compounds, read-out: MIC AB110 19606",0.06 µg/mL
same,MIC,"[12]; ATCC27853, numeric values of control compounds, read-out: MIC PA111 27853",16 µg/mL
same,MIC,"[13]; ATCC13047, numeric values of control compounds, read-out: MIC EC108 13047",2 µg/mL
same,MIC,"[15]; numeric values of control compounds, read-out: MIC KP153 tetA",8 µg/mL
"CN(C)[C@@H]1C(O)=C(C(N)=O)C(=O)[C@@]2(O)C(O)=C3C(=O)c4c(O)cccc4C[C@H]3C[C@@H]12 [San., Sancycline, reference compound]",MIC,[1]; read-out: MIC SA101 29213,0.5 µg/mL
same,MIC,[2]; read-out: MIC SA100 13709,1 µg/mL
same,MIC,[4]; read-out: MIC SA158 tetK,4 µg/mL
same,MIC,[5]; [25],8 µg/mL
same,MIC,[6]; read-out: MIC EF159 tetM,8 µg/mL
same,MIC,[7]; [26],0.25 µg/mL
same,MIC,[8]; read-out: MIC SP160 tetM,8 µg/mL
same,MIC,[9]; [27],8 µg/mL
same,MIC,[10]; read-out: MIC EC155 tetA,32 µg/mL
same,MIC,[11]; [28],0.25 µg/mL
same,MIC,[12]; [29],> 32 µg/mL
same,MIC,[13]; [30],8 µg/mL
same,MIC,[14]; [31],8 µg/mL
same,MIC,[15]; read-out: MIC KP153 tetA,32 µg/mL
"CN(C)c1cc(NC(=O)CNC(C)(C)C)c(O)c2c1C[C@H]1C[C@H]3[C@H](N(C)C)C(O)=C(C(N)=O)C(=O)[C@@]3(O)C(O)=C1C2=O [Tige., Tigecycline, reference compound]",MIC,[1]; read-out: MIC SA101 29213,0.06 µg/mL
same,MIC,[2]; read-out: MIC SA100 13709,0.06 µg/mL
same,MIC,"[3]; read-out: MIC SA161 MRSA, tetM",0.125 µg/mL
same,MIC,[4]; read-out: MIC SA158 tetK,0.06 µg/mL
same,MIC,[5]; [25],0.03 µg/mL
same,MIC,[6]; read-out: MIC EF159 tetM,0.06 µg/mL
same,MIC,[7]; [26],0.0156 µg/mL
same,MIC,[8]; read-out: MIC SP160 tetM,0.0156 µg/mL
same,MIC,[9]; [27],0.03 µg/mL
same,MIC,[10]; read-out: MIC EC155 tetA,0.5 µg/mL
same,MIC,[11]; [28],0.25 µg/mL
same,MIC,[12]; [29],8 µg/mL
same,MIC,[13]; [30],0.25 µg/mL
same,MIC,[14]; [31],0.125 µg/mL
same,MIC,[15]; read-out: MIC KP153 tetA,1 µg/mL
same,TnT IC50,[23],0.3 µg/mL
"CN(C)c1cc(NC(=O)CNC(C)(C)C)c(O)c2c1C[C@H]1C[C@H]3[C@H](N(C)C)C(O)=C(C(N)=O)C(=O)[C@@]3(O)C(O)=C1C2=O [tigecycline, reference compound]",MIC,[2]; read-out: MIC S. aureus ATCC 13709,0.13 µg/mL
same,MIC,"[9]; ATCC25922, read-out: MIC E. coli ATCC 25922",0.13 µg/mL
same,MIC Range,[16],<=0.016-0.13
same,MIC Range,[17],0.063-0.25
same,MIC Range,[18],≦0.016
same,TnT IC50,[23],0.47 µg/mL
same,PD50,E. coli ATCC 25922,2.1 mg/kg
same,PD50,[24],0.35 mg/kg
